Test results: PubChem BioAssay AID2305 (GlaxoSmithKline (GSK), 2010)
“And” between values parts separate entries of the source, which are not always exact repeats. Equal values may be shown once.

tested on: P. falciparum 3D7 growth, pLDH absorbance; test: blood-stage malaria parasite growth potency – strain 3D7, dose response (AID 2305)

| SMILES | IC50 |
| --- | --- |
| CCn1c(C(C)C)cc2c3c(N)nc(N)nc3ccc21 | 10 nM |
| NC(N)=NN=C1C=Cc2cccc3cccc1c23 | 610 nM |
| O=C(Nc1cccc(-c2ccc(-c3nc4ccc(C(F)(F)F)cc4[nH]3)cc2)c1)c1ccoc1 | 710 nM |
| COc1ccc(N2CCN(CCCNC(=O)c3ccc(NC(=O)c4cc(Cl)cc(Cl)c4)cc3)CC2)c(OC)c1 | 270 nM |
| COc1cc(NC(=O)c2cccs2)c(OC)cc1NC(=O)Nc1cccc(Cl)c1 | 1000 nM |
| CC(C)NCc1ccc(-c2cccc(NC(=O)c3ccc(C#N)cc3)c2)cc1 | 740 nM |
| CCCCCCCCCC(=O)NCC1CC(Br)=NO1 (stereo not drawn) | 1050 nM |
| CCN(CC)CCCC(C)Nc1c(-c2ccc(C)cc2)cnc2ccccc12 (stereo not drawn) | 200 nM |
| O=C(Nc1cccc(-c2csc(-c3ccccc3)n2)c1)c1cccs1 | 800 nM |
| O=C(Nc1cccc(-c2cccc(-c3nc4ccccc4[nH]3)c2)c1)Nc1ccc2c(c1)OCO2 | 170 nM |
| COc1cc(Cc2cnc(N)nc2N)ccc1OCc1ccc(-c2csnn2)cc1 | 630 nM |
| Cc1cc(N[C@@H](Cc2ccccc2)C(=O)NCCc2ccccc2)nc(NCC2CCCCC2)n1 | 920 nM |
| CCOC(=O)CCCOc1c(OC)cc(Cc2cnc(N)nc2N)cc1OC | 780 nM |
| CCOc1cc(C(=O)NCCN(C(C)C)C(C)C)ccc1-c1nc2ccc(Cl)cc2[nH]1 | 780 nM |
| Cc1ccc2nc3c(cc(C(=O)NCCc4ccccc4)c(=N)n3CCCOC(C)C)c(=O)n2c1 | 890 nM |
| COCc1ccc(CN2CCC(C(=O)Nc3ccc(-c4nc5ccccc5[nH]4)cc3)CC2)o1 | 850 nM |
| COc1ccc(-c2nc(NC(=O)CSc3ccc([N+](=O)[O-])cc3)sc2C)cc1 | 140 nM |
| Cc1ccc(-c2nnc(Nc3ccc(CC(N)=O)cc3)c3ccccc23)cc1S(=O)(=O)NCC1CCCO1 (stereo not drawn) | 790 nM |
| CC[C@H]1CN2CC[C@H]1C[C@H]2[C@H](OC(=O)c1ccccc1)c1cc(C#N)nc2ccc(OC)cc12 | 910 nM |
| C(=NNc1ccnc2ccccc12)c1ccncc1 | 740 nM |
| CCCCCCN1CCC(NCc2ccc(CN(C)C)cc2)CC1 | 1270 nM |
| COc1ccc(-c2cncc(-c3ccc(OC)c(OC)c3)n2)cc1OC | 780 nM |
| C=C(C)C1CC=C(CN2CCCC(n3ccc4cc(NC(=O)c5ccco5)ccc43)CC2)CC1 (stereo not drawn) | 750 nM |
| Cc1cc2c(cc1C(F)(F)F)N(C(=O)Nc1cc(OCCN(C)C)cc(C(F)(F)F)c1)CC2 | 710 nM |
| COc1ccc(-n2ccnc2SCC(=O)Nc2cc(C)ccc2C)c(OC)c1 | 200 nM |

| SMILES | IC50 |
| --- | --- |
| Cc1cc(C(F)(F)F)nn1-c1ccc(NC(=O)c2ccco2)cc1 | 730 nM |
| FC(F)(F)c1ccc2nc(-c3cccc(-c4cccc(CN5CCN(c6ccncc6)CC5)c4)c3)[nH]c2c1 | 160 nM |
| COc1cc(Nc2nccc(-c3c(-c4cccc(NC(=O)c5c(F)cccc5F)c4)nn4ncccc34)n2)cc(OC)c1OC | 30 nM |
| COc1ccc(-n2nc(C)cc2C(=O)NCc2ccc(-c3c(C)noc3C)cc2)cc1 | 980 nM |
| COC(=O)c1ccc(CC(C)NCC(O)c2ccc(Cl)c(Cl)c2)cc1 (stereo not drawn) | 1000 nM |
| COc1cccc(-c2cc(-c3ccc(NC(=O)c4ccccc4)cc3)c3c(N)ncnc3n2)c1 | 590 nM |
| COc1ccc2nccc(NN=Cc3cccc([N+](=O)[O-])c3)c2c1 | 400 nM |
| O=C(/C=C/c1ccc(Cl)c(Cl)c1)N1CCN(C(=O)Nc2ccc(C(F)(F)F)cc2)CC1 | 670 nM |
| COc1ccccc1-n1c(SCC(=O)c2ccc3c(c2)CC(=O)N3C)nnc1-c1cccs1 | 960 nM |
| O=C(CCc1ccc(Cl)cc1Cl)NC1CCC(CN2CCC(c3c[nH]c4ccccc34)CC2)CC1 (stereo not drawn) | 900 nM and 220 nM |
| CN1CCCC(CN2CCN(Cc3cccc(-c4csc(-c5nc6ccccc6[nH]5)c4)c3)CC2)C1 (stereo not drawn) | 410 nM |
| CCN(CC)CCN(Cc1ccc(-c2ccc(Br)cc2)cc1)C(=O)Cn1c(CCc2cccc(F)c2F)nc(=O)c2ccccc21 | 790 nM |
| COc1ccc(F)cc1-c1csc(N(c2ccc(F)cc2)C2CCNCC2)n1 | 1210 nM |
| O=C(Cn1c(CCc2cccc(F)c2F)nc(=O)c2ccccc21)N(CCCN1CCCCC1)Cc1ccc(-c2ccc(C(F)(F)F)cc2)cc1 | 760 nM |
| CCCC(C)NC(=O)c1cnn(-c2ccc(C(C)(C)C)cc2)c1OCc1ccc(Br)cc1 (stereo not drawn) | 1060 nM |
| COc1c(C)cc(I)cc1CNCCCNc1cc(=O)c2ccccc2[nH]1 | 1280 nM |
| CC(=O)Nc1ccc(Nc2c3ccccc3nc3ccccc23)cc1 | 1020 nM |
| CCN1CCN(Cc2c(O)ccc3c(=O)c(Oc4cc(C)cc(C)c4)c(C(F)(F)F)oc23)CC1 | 770 nM |
| COc1ccccc1/C=C/C(=O)N(C)C1CCN(CCCCCNC(=O)/C=C/c2ccc(Cl)c(Cl)c2)C1 (stereo not drawn) | 870 nM |
| Nc1nc(N)c2c(ccc3nn(S(=O)(=O)N4CCCC4)cc32)n1 | 100 nM |
| Nc1c(Cl)cc(C(O)CNCCCCCOCCc2ccc3occc3c2)cc1Cl (stereo not drawn) | 690 nM |
| NC(=O)c1ccccc1Nc1nc(Nc2cccc(N3CCN(CCO)CC3)c2)ncc1Cl | 40 nM |
| COc1cccc(C=CC(=O)NC2CCC(CN3CCC(c4c[nH]c5ccccc45)CC3)CC2)c1OC (stereo not drawn) | 740 nM |
| CCCCN(C)CC#Cc1ccc2[nH]c(C)c(Cl)c(=O)c2c1 | 130 nM |
| CN(C)CCCN(C)C(=O)c1cc2cc(-c3ccccc3)ccc2n1S(=O)(=O)c1ccccc1 | 460 nM |

| SMILES | IC50 |
| --- | --- |
| COc1ccc(-c2ccc(NC(=O)c3ccc(C#N)cc3)cc2)cc1CN1CCCN(C)CC1 | 150 nM |
| CCN(CC)CC(O)c1cc(-c2ccc(C)cc2)nc2c(C)cc(C)cc12 (stereo not drawn) | 170 nM |
| Cc1cccc2[nH]c(-c3cccc(-c4ccc(NC(=O)c5ccc(=O)[nH]n5)cc4)c3)nc12 | 860 nM |
| CCNc1cc(C(=O)N[C@@H](Cc2ccccc2)[C@H](O)CNC2(Cc3cccc(Cl)c3)CCC2)cc(N2CCCCS2(=O)=O)c1 | 1180 nM |
| CSc1ccc(CN2CCC(NC(=O)c3ccc(-c4cccc(C(F)(F)F)c4)s3)CC2)cc1 | 1220 nM |
| O=C(Nc1ccc(F)cc1)NC1CCN(c2ccnc3cc(Cl)ccc23)C1 (stereo not drawn) | 220 nM |
| CC(=O)Nc1ccc(CCNC(C)Cc2ccc(C(=O)Nc3ccc(CC(C)NCCc4cccc(Cl)c4)cc3)cc2)cc1 (stereo not drawn) | 330 nM |
| O=C(/C=C/c1ccc(O)cc1)NC1CCC(CN2CCC(c3c[nH]c4ccccc34)CC2)CC1 (stereo not drawn) | 740 nM |
| O=C(NC1CCC(CCN2Cc3cccc(F)c3C2)CC1)c1cccc(-c2cccnc2)c1 (stereo not drawn) | 300 nM |
| O=C(NC1CCN(CCCOc2ccnc3cc(Cl)ccc23)C1)c1ccc(Br)cc1 (stereo not drawn) | 1020 nM |
| CCOC(=O)C1=C(C)NC(Cn2ccnc2)=C(C(=O)OCC)C1c1ccc(C(C)(C)C)cc1 (stereo not drawn) | 810 nM |
| Cc1cccc2[nH]c(-c3ccc(-c4ccc(CNCc5ccccc5)cc4)cc3)nc12 | 510 nM |
| COc1ccc(C2NCCc3c2[nH]c2ccccc32)cc1CN1CCN(c2ccc(F)cc2)CC1 (stereo not drawn) | 780 nM |
| Cc1cc(-c2nc3ccc(C(=N)N)cc3[nH]2)c(C)cc1-c1nc2ccc(C(=N)N)cc2[nH]1 | 400 nM |
| O=C(N[C@@H](CC1CCCCC1)C(=O)NCCN1CCOCC1)c1ccc(O)c(-c2ccc(Cl)c(Cl)c2)c1 | 180 nM |
| N#Cc1ccc(C(=O)Nc2cc(-c3cccc(O)c3)cc3[nH]ncc23)cc1 | 1370 nM |
| O=c1nc(C=Cc2ccc(Br)cc2)oc2ccccc12 | 1050 nM |
| Nc1nc(Cc2ccc(Cl)cc2)nc(Cc2ccc(Cl)cc2)n1 | 930 nM |
| Cc1c(C(=O)N2CCc3cc4nccc(N5CCN6CCC[C@H]6C5)c4cc32)cnn1-c1ccc(C#N)cc1 | 990 nM |
| O=C(COc1ccc(C(=O)c2ccccc2)cc1)Nc1nccs1 | 890 nM |
| Cc1ccc(O)cc1Nc1ccnc2cc(-c3csc(CN4CCN(C)CC4)n3)ccc12 | 600 nM |
| Brc1cc(Br)c2c(c1)C(NCCCNC1CCNc3c(Br)cc(Br)cc31)CCN2 (stereo not drawn) | 820 nM |
| CCOc1ccc(/C=C/C(=O)Nc2cccc3c2CCN(C)C3)cc1 | 1110 nM |
| O=C(c1cccc(Br)c1)N1CCN(c2ccc([N+](=O)[O-])c(NC3CC3)c2)CC1 | 940 nM |
| O=[N+]([O-])c1cc(C(c2ccc(O)c([N+](=O)[O-])c2)C(Cl)(Cl)Cl)ccc1O | 730 nM |

| SMILES | IC50 |
| --- | --- |
| O=C(/C=C/c1ccc(Cl)c(Cl)c1)NCCCCCN1CCC(NC(=O)NCCc2ccccc2)CC1 | 720 nM |
| O=C(NCCc1ccccc1)N(Cc1ccccc1-c1cccc(CNCCc2ccccc2)c1)C1CCN(Cc2ccccc2)CC1 | 620 nM |
| COc1ccc2c(c1)CCCC2NCCCCNC(=O)c1ccc(NC(=O)c2ccc(Cl)cc2)cc1 (stereo not drawn) | 380 nM |
| CC(C)NCc1ccc(-c2cccc(-c3nc4ccc(C(F)(F)F)cc4[nH]3)c2)cc1 | 260 nM |
| CNc1ccc(CNCc2cccc(-c3ccc(-c4nc5ccccc5[nH]4)s3)c2)cc1 | 730 nM |
| CC(C)N1CCN(C(=O)c2ccc(CNCCCN3CCN(c4ccccc4C(F)(F)F)CC3)s2)CC1 | 840 nM |
| CCCN1CC[C@@H](CCCc2ccnc3ccc(O)cc23)[C@@H](CC)C1 | 890 nM |
| O=S(=O)(Nc1cc2c(cc1OCCCN1CCCCC1)CCNCC2)c1ccc(-c2ccc(Cl)cc2)cc1 | 1000 nM |
| OC1CCCN(Cc2ccc(-c3ccc(-c4nc5ccc(F)cc5[nH]4)s3)cc2)C1 (stereo not drawn) | 850 nM |
| CC(C)CCNC(=O)C1Cc2c([nH]c3ccc(Br)cc23)C2(CCN(Cc3ccccc3)CC2)N1 (stereo not drawn) | 820 nM |
| CC(C)(Oc1c(C2CCN(CCCCNC(=O)c3ccc(-c4ccc(C#N)cc4)cc3)CC2)ccc2c1CCCC2)C(N)=O | 700 nM |
| O=C(CCC1CCCCC1)NCCNc1cccc2ccccc12 | 830 nM |
| Fc1cccc(COc2ccc(-n3ccc4c(NCCCn5ccnc5)ncnc43)cc2Cl)n1 | 1030 nM |
| CCOC(=O)Cn1ccc2c(NCc3ccccc3)nc(C)nc21 | 370 nM |
| CCOc1c(Br)cc(C)cc1CNCCCNc1nc2ccccc2[nH]1 | 670 nM |
| CCCCCC(C)C(C)c1cc(O)c2c(c1)O[C@@]1(C(C)C)CC(O)[C@H](C)[C@@H]2C1 (stereo partly drawn) | 990 nM |
| OC(CNCc1ccccc1OCc1ccccc1)c1cccc(Cl)c1 (stereo not drawn) | 220 nM |
| CCOC(=O)c1ccc(NC(=O)Nc2ccc(-c3ccc(-c4nc5c(C)cccc5[nH]4)s3)cc2)cc1 | 200 nM |
| O=[N+]([O-])c1ccc(C=NNc2nc3ccccc3[nH]2)cc1 | 280 nM |
| CCNc1cc(C(=O)N[C@@H](Cc2ccccc2)[C@H](O)CNC(C)(C)CCCC(C)C)c(F)c(N2CCCS2(=O)=O)c1 | 200 nM |
| O=C(Cc1ccc(NC(=O)c2ccc(O)c(-c3ccc(Cl)c(Cl)c3)c2)cc1)NCCN1CCOCC1 | 810 nM |
| O=[N+]([O-])c1ccc(NC(=NCCOc2ccccc2)Nc2ccccc2Br)c(O)c1 | 1050 nM |
| O=C(Nc1cccc(-c2cccc(-c3nc4ccc(C(F)(F)F)cc4[nH]3)c2)c1)c1ccncc1 | 200 nM |
